Literature values, collected in US20230172916A1, “COMPOSITION COMPRISING AT LEAST ONE PROTOBERBERINE ALKALOID AND METHOD FOR MANUFACTURING SAME” (ELEONOR, priority 2020, published 2023).
Where two headings read alike, the source gives them in different places.

How the values were obtained:
[1] = scientific studies report; species not stated
[2] = laboratory rats subjected to experiments

bioavailability [1]: less than 5%
bioavailability [2]: about 0.68%
SMILES: COc1ccc2cc3[n+](cc2c1OC)CCc1cc2c(cc1-3)OCO2 [berberine, 2,3-methylenedioxy-9,10-dimethoxy-protoberberine]
